Legend:
Format in all cases: functional
[1] = tested on: Mus musculus; assay: Reduction of serum cholesterol in CF1 male mice on day 16 following 20 mg/kg/day i.p. administration.; settings: route intraperitoneal
[2] = tested on: Mus musculus; assay: Reduction of serum cholesterol in CF1 male mice on day 9 following 20 mg/kg/day i.p. administration.; settings: route intraperitoneal
[3] = tested on: Mus musculus; assay: Reduction of serum triglycerides in CF1 male mice on day 16 following 20 mg/kg/day i.p. administration.; settings: route intraperitoneal
[4] = tested on: Mus musculus; assay: Hypolipidemic effects in CF1 male mice at a dose 150 mg/(kg day), ip, percent control of serum triglyceride was determined on day 16
[5] = tested on: Mus musculus; assay: Hypolipidemic effects in CF1 male mice at a dose 150 mg/(kg day), ip, percent control of serum cholesterol was determined on day 16
[6] = tested on: Mus musculus; assay: Hypolipidemic effects in CF1 male mice at a dose 150 mg/(kg day), ip,percent control of serum cholesterol was determined on day 9

SMILES | Serum cholesterol, percent of control [1] [%] | Serum cholesterol, percent of control [2] [%] | Serum triglycerides, % of control [3] [%] | Control [4] [%] | Control [5] [%] | Control [6] [%]
O=c1c2ccccc2[nH]n1CCCO | 83 | 96 | 72 | – | – | –
Oc1n[nH]c2ccccc12 | 80 | 96 | 75 | – | – | –
O=c1c2ccccc2[nH]n1Cc1ccccc1 | 72 | 83 | 58 | – | – | –
CCCn1[nH]c2ccccc2c1=O | 68 | 92 | 77 | – | – | –
CCCCCn1[nH]c2ccccc2c1=O | 73 | 79 | 77 | – | – | –
CCn1[nH]c2ccccc2c1=O | 71 | 98 | 71 | – | – | –
CCOC(=O)n1c2ccccc2c(=O)n1CCC(=O)O | 77 | 88 | 70 | – | – | –
CC(=O)c1cccc(Cn2[nH]c3ccccc3c2=O)c1 | 70 | 86 | 56 | – | – | –
CCOC(=O)C(C)(C)Oc1ccc(Cl)cc1 [CLOFIBRATE] | – | – | – | 75 | 87 | 92
CCCCn1[nH]c2ccc(Cl)cc2c1=O | 74 | 76 | 83 | – | – | –
CCOC(=O)n1[nH]c(=O)c2ccccc21 | 60 | 78 | 61 | – | – | –
CC(=O)c1ccccc1Cn1[nH]c2ccccc2c1=O | 60 | 98 | 41 | – | – | –
CC(=O)c1ccc(Cn2[nH]c3ccccc3c2=O)cc1 | 75 | 76 | 50 | – | – | –
CCCCn1[nH]c2ccc(C)cc2c1=O | 97 | 95 | 81 | – | – | –
O=C1NC(=O)c2ccccc21 [PHTHALIMIDE] | 57 | 63 | 44 | – | – | –
CC(=O)CCn1[nH]c2ccccc2c1=O | 46 | 78 | 46 | – | – | –
Cn1[nH]c2ccccc2c1=O | 69 | 92 | 72 | – | – | –
CCCCn1[nH]c2cc(Cl)ccc2c1=O | 75 | 98 | 69 | – | – | –
O=c1c2ccccc2[nH]n1CCO | 83 | 97 | 63 | – | – | –
CCCCn1[nH]c2ccccc2c1=O | 46 | 92 | 44 | – | – | –

— ChEMBL document CHEMBL1122669, “Hypolipidemic activity of phthalimide derivatives. 7. Structure-activity studies of indazolone analogues” (1984)
